For this assay, the target named is SARS-CoV-2 3CLpro (Severe acute respiratory syndrome coronavirus 2, UniProt P0DTD1). The experiment in a line: biochemical. It counts as biochemical. Set-up: Replicate_1 / Replicate_2 / mean / mean (LOPAC_screen_w_protease): unit not given here. Conditions: for inhibition at 5 µM: 4 h.
The mark [1] stands for this setting: sheet LOPAC_screen_w_protease, primary screen with protease, compound at 5 µM, replicate 1.
Setting [2] is: sheet LOPAC_screen_w_protease, primary screen with protease, compound at 5 µM, replicate 2.
Setting [3] is: LOPAC1280 primary screen with protease, 5 µM compound, mean of the two replicates.
Setting [4] is: LOPAC1280 primary screen with protease, 5 µM compound, replicate 1.
Where [5] appears, read: LOPAC1280 primary screen with protease, 5 µM compound, replicate 2.
The mark [6] stands for this setting: sheet LOPAC_screen_w_protease, LOPAC1280 primary screen with protease, 5 µM compound, mean of the two replicates.
Where [7] appears, read: sheet LOPAC_screen_w_protease, LOPAC1280 primary screen with protease, 5 µM compound, replicate 1.
[8] abbreviates: sheet LOPAC_screen_w_protease, LOPAC1280 primary screen with protease, 5 µM compound, replicate 2.
[9] abbreviates: sheet LOPAC_screen_w_protease, LOPAC1280 primary screen at 5 µM, with protease, mean of the two replicates.
[10] abbreviates: sheet LOPAC_screen_w_protease, LOPAC1280 primary screen at 5 µM, with protease, replicate 1.
[11] abbreviates: sheet LOPAC_screen_w_protease, LOPAC1280 primary screen at 5 µM, with protease, replicate 2.
Where [12] appears, read: sheet LOPAC_screen_w_protease, primary screen of LOPAC1280 at 5 µM with protease, mean of the two replicates.
Where [13] appears, read: sheet LOPAC_screen_w_protease, primary screen of LOPAC1280 at 5 µM with protease, replicate 1.
Setting [14] is: sheet LOPAC_screen_w_protease, primary screen of LOPAC1280 at 5 µM with protease, replicate 2.
The mark [15] stands for this setting: sheet LOPAC_screen_w_protease, LOPAC1280 at 5 µM, mean of two replicates.
Setting [16] is: sheet LOPAC_screen_w_protease, LOPAC1280 at 5 µM, replicate 1.
The mark [17] stands for this setting: sheet LOPAC_screen_w_protease, LOPAC1280 at 5 µM, replicate 2.
The mark [18] stands for this setting: LOPAC1280 primary screen with protease, 5 µM compound, mean of two replicates.

Data on 32 molecules can be found in PMC7587356, “High-Throughput Screening for Inhibitors of the SARS-CoV-2 Protease Using a FRET-Biosensor” (Molecules, 2020).

Where a name gives a salt, the structure may show the parent alone. Read-outs that look alike come from different tables or passages of the source.

As to `CC(C)NCC(O)c1ccc(O)c(O)c1.Cl` (racemic) [(±)-Isoproterenol hydrochloride], the Replicate_1 under setting [1] is given as 3.707. The molecule further returned a Replicate_2 under setting [2] of 1.7371.

On to `COc1ccc(CCN(C)CCCC(C#N)(c2cc(OC)c(OC)c(OC)c2)C(C)C)cc1OC.Cl` (racemic) [(±)-Methoxyverapamil hydrochloride], for which the “mean (LOPAC_screen_w_protease)” value under setting [3] amounted to 2.071. Besides, the “Replicate_1 (LOPAC_screen_w_protease)” value under setting [4] is on record as 2.317. The “Replicate_2 (LOPAC_screen_w_protease)” value under setting [5] was found to be 1.826.

`C[C@@H]1O[C@H](C[N+](C)(C)C)C[C@H]1O.[Cl-]` (racemic) [(±)-Muscarine chloride] gave a mean under setting [6] of 5.0033. Under setting [7], this molecule showed a Replicate_1 of 6.646. Under setting [8], this molecule displayed a Replicate_2 of 3.361.

Under setting [9], `O=C(O)C1CCCNC1` (racemic) [(±)-Nipecotic acid] had a mean of 0.4335. In addition, the Replicate_1 under setting [10] is recorded as 0.981. Under setting [11], this molecule displayed a Replicate_2 of -0.114.

Turning to `COc1cc(C(O)CN)ccc1O.Cl` (racemic) [(±)-Normetanephrine hydrochloride], under setting [6], the mean came out at 4.101. Moreover, under setting [7], the Replicate_1 came out at 4.337. This molecule yielded a Replicate_2 under setting [8] of 3.864.

In the case of `CN1CCN(C2Cc3ccccc3Sc3ccc(Cl)cc32)CC1.O=C(O)/C=C\C(=O)O` (racemic) [(±)-Octoclothepin maleate], the mean under setting [6] is reported as 4.928. Under setting [7], this molecule registered a Replicate_1 of 3.609. This molecule also returned a Replicate_2 under setting [8] of 6.247.

The molecule `Cl.NCC(O)c1ccc(O)cc1` (racemic) [(±)-Octopamine hydrochloride] yielded a mean under setting [12] of 4.023. The Replicate_1 under setting [13] came to 4.835. Further, under setting [14], the Replicate_2 is given as 3.21.

Take `CCCN1CCOC2c3cc(O)ccc3OCC21.Cl` (racemic) [(±)-PD 128,907 hydrochloride]: the mean under setting [12] is 3.436. The Replicate_1 under setting [13] was found to be 4.647. The same molecule showed a Replicate_2 under setting [14] of 2.226.

`CCCN(CCc1ccccc1)C1CCc2c(O)cccc2C1.Cl` (racemic) [(±)-PPHT hydrochloride]: the mean under setting [15] is on record as 1.126. Under setting [16], this molecule showed a Replicate_1 of 1.344. The Replicate_2 under setting [17] was found to be 0.9086.

Molecule `CC(C)NCC(O)COc1cccc2ccccc12.Cl` (racemic) [(±)-Propranolol hydrochloride] gave a Replicate_1 of 2.83, a Replicate_2 of 6.763 and a mean of 4.797.

Take `CC(C)NCC(O)c1ccc(NS(C)(=O)=O)cc1.Cl` (racemic) [(±)-Sotalol hydrochloride]: under setting [18], the “mean (LOPAC_screen_w_protease)” value amounted to 1.4398. Also, the “Replicate_1 (LOPAC_screen_w_protease)” value under setting [4] was 1.054. Under setting [5], the “Replicate_2 (LOPAC_screen_w_protease)” value turned out to be 1.826.

Consider `CNCC(O)c1ccc(O)cc1` (racemic) [(±)-Synephrine], for which the “mean (LOPAC_screen_w_protease)” value under setting [18] is reported as 1.431. Under setting [4], the “Replicate_1 (LOPAC_screen_w_protease)” value is 1.098. Moreover, under setting [5], the “Replicate_2 (LOPAC_screen_w_protease)” value is recorded as 1.765.

`O=C1c2c(O)cc(O)cc2O[C@H](c2ccc(O)c(O)c2)[C@H]1O` (racemic) [(±)-Taxifolin]: for the setting “sheet LOPAC_screen_w_protease, primary screen at 5 µM, mean of two replicates”, the “mean (LOPAC screen with protease)” value is listed as 7.529. Moreover, the “Replicate_1 (LOPAC screen with protease)” value (sheet LOPAC_screen_w_protease, primary screen at 5 µM, replicate 1) is recorded as 9.2588. The “Replicate_2 (LOPAC screen with protease)” value (sheet LOPAC_screen_w_protease, primary screen at 5 µM, replicate 2) was found to be 5.799.

`O=C1CCC(N2C(=O)c3ccccc3C2=O)C(=O)N1` (racemic) [(±)-Thalidomide]: the mean under setting [15] is 1.21. Under setting [16], this molecule yielded a Replicate_1 of 0.4169. The molecule also had a Replicate_2 under setting [17] of 2.003.

`COc1cc(C(O)C(=O)O)ccc1O` (racemic) [(±)-Vanillylmandelic acid] displayed a mean under setting [15] of 1.1. In addition, the Replicate_1 under setting [16] is 2.648. This molecule also had a Replicate_2 under setting [17] of -0.449.

In the case of `Cl.OC1CCCCC1N1CCC(c2ccccc2)CC1` (racemic) [(±)-Vesamicol hydrochloride], the mean under setting [9] turned out to be 0.573. Also, the Replicate_1 under setting [10] is 1.205. The molecule also yielded a Replicate_2 under setting [11] of -0.05902.

As for `CC(N)(C(=O)O)c1ccc(C(=O)O)cc1` (racemic) [(±)-alpha-Methyl-4-carboxyphenylglycine], the mean under setting [6] is reported as 4.794. Moreover, the Replicate_1 under setting [7] is given as 3.648. The Replicate_2 under setting [8] is given as 5.939.

With `O=C(O)[C@H]1CCCN[C@H]1C(=O)O` (racemic) [(±)-cis-Piperidine-2,3-dicarboxylic acid], the “mean (LOPAC_screen_w_protease)” value under setting [18] stood at 1.527. In addition, the “Replicate_1 (LOPAC_screen_w_protease)” value under setting [4] is recorded as 0.9979. In addition, the “Replicate_2 (LOPAC_screen_w_protease)” value under setting [5] was determined as 2.056.

In the case of `C=CC(N)CCC(=O)O` (racemic) [(±)-gamma-Vinyl GABA], the mean (sheet LOPAC_screen_w_protease, primary screen with protease, 5 µM, mean of two replicates) was -0.2228. For the setting “sheet LOPAC_screen_w_protease, primary screen with protease, 5 µM, replicate 1”, this molecule had a Replicate_1 of -0.2758. In addition, the Replicate_2 (sheet LOPAC_screen_w_protease, primary screen with protease, 5 µM, replicate 2) is on record as -0.1698.

Take `CCC1(c2ccc(N)cc2)CCC(=O)NC1=O` (racemic) [(±)-p-Aminoglutethimide]: the mean (sheet LOPAC_screen_w_protease, primary screen with protease, mean of two replicates) is on record as 2.443. The Replicate_1 (sheet LOPAC_screen_w_protease, primary screen with protease, replicate 1) worked out at 1.25. Moreover, the Replicate_2 (sheet LOPAC_screen_w_protease, primary screen with protease, replicate 2) was 3.637.

Consider `NC(Cc1ccc(Cl)cc1)C(=O)O` (racemic) [(±)-p-Chlorophenylalanine], for which the mean under setting [12] is 3.154. Further, under setting [13], the Replicate_1 stood at 1.596. The molecule further yielded a Replicate_2 under setting [14] of 4.711.

Under setting [9], `CCCCS(=N)(=O)CCC(N)C(=O)O` (racemic) [DL-Buthionine-[S,R]-sulfoximine] yielded a mean of 0.7813. Besides, the Replicate_1 under setting [10] was determined as 0.9596. Further, the Replicate_2 under setting [11] was 0.6029.

For the molecule `N[C@@H]1CONC1=O` (racemic) [DL-Cycloserine], under setting [12], the mean came to 3.186. This molecule also displayed a Replicate_1 under setting [13] of 2.383. The Replicate_2 under setting [14] came to 3.989.

As for `CCCCCCCCCCCCCCCCCC(=O)OC(CC(=O)O)C[N+](C)(C)C.[Cl-]` (racemic) [DL-Stearoylcarnitine chloride], the “mean (LOPAC_screen_w_protease)” value under setting [3] came to 1.7681. The “Replicate_1 (LOPAC_screen_w_protease)” value under setting [4] is on record as 3.299. Moreover, under setting [5], the “Replicate_2 (LOPAC_screen_w_protease)” value turned out to be 0.2369.

With `O=C(O)CNC(=O)C(CS)Cc1ccccc1` (racemic) [DL-Thiorphan], the inhibition at 5 µM is, setting by setting: (sheet LOPAC_screen_w_protease, primary screen with protease, 5 µM, mean of two replicates, read-out: mean) 0.357%; (sheet LOPAC_screen_w_protease, primary screen with protease, 5 µM, replicate 1, read-out: Replicate_1) -0.479%; (sheet LOPAC_screen_w_protease, primary screen with protease, 5 µM, replicate 2, read-out: Replicate_2) 1.19%.

With `CC(N)(Cc1ccc(O)cc1)C(=O)O` (racemic) [DL-alpha-Methyl-p-tyrosine], the mean under setting [15] came to 1.1698. In addition, the Replicate_1 under setting [16] was found to be 0.7226. Also, the Replicate_2 under setting [17] was determined as 1.617.

As to `CCCCCCCCCCCCCCC[C@H](O)[C@H](N)CO` (racemic) [DL-erythro-Dihydrosphingosine], the “mean (LOPAC_screen_w_protease)” value under setting [18] was 1.428. In addition, the “Replicate_1 (LOPAC_screen_w_protease)” value under setting [4] is 4.536. Further, the “Replicate_2 (LOPAC_screen_w_protease)” value under setting [5] is given as -1.681.

In the case of `NC(C(=O)O)C(O)C(=O)O` (racemic) [DL-threo-beta-hydroxyaspartic acid], the “mean (LOPAC_screen_w_protease)” value under setting [3] amounted to 2.095. Moreover, the “Replicate_1 (LOPAC_screen_w_protease)” value under setting [4] is 2.385. In addition, under setting [5], the “Replicate_2 (LOPAC_screen_w_protease)” value is reported as 1.804.

As to `Oc1cc2c(cc1O)[C@H]1c3ccccc3CN[C@@H]1CC2` (racemic) [Dihydrexidine hydrochloride], the inhibition at 5 µM runs as follows: (read-out: Replicate_1 (LOPAC screen with protease)) 96.2%; (read-out: Replicate_2 (LOPAC screen with protease)) 98.8%; (read-out: mean (LOPAC screen with protease)) 97.5%.

Consider `CCCCCCCCCCCCCCCC(=O)OC(CC(=O)O)C[N+](C)(C)C.[Cl-]` (racemic) [Palmitoyl-DL-Carnitine chloride], for which the mean (sheet LOPAC_screen_w_protease, primary screen with protease, compound at 5 µM, mean of two replicates) turned out to be 2.684. Also, under setting [1], the Replicate_1 came out at 2.378. Besides, under setting [2], the Replicate_2 is reported as 2.9894.

Under setting [12], `Br.CCCN1CC[C@@H]2c3cc(O)ccc3CC[C@@H]21` (racemic) [cis-(±)-8-OH-PBZI hydrobromide] showed a mean of 4.0009. The molecule further gave a Replicate_1 under setting [13] of 4.218. For the same molecule, under setting [14], the Replicate_2 was 3.784.

As to `O=C(O)[C@H]1C[C@H](C(=O)O)N1` (relative stereo) [trans-Azetidine-2,4-dicarboxylic acid], the “mean (LOPAC_screen_w_protease)” value under setting [3] was 2.097. Further, the “Replicate_1 (LOPAC_screen_w_protease)” value under setting [4] is 1.338. Besides, the “Replicate_2 (LOPAC_screen_w_protease)” value under setting [5] was found to be 2.855.
